Like-named read-outs stand apart in the source and are kept apart here.
Target: BRAF V600E (Homo sapiens, UniProt P15056, V600E)
Test: HiBiT cellular BRAF^V600E degradation assay
Assay type: cell-based
Conditions: for DC50: concentration at which 50% of total cellular BRAF^V600E is degraded; for Emax: read-out: HiBit 24 h Emax
[1] = A375.10 cells, 24 h, residual protein remaining in the cell

BRAF V600E, sequence (P15056 whole entry V600E): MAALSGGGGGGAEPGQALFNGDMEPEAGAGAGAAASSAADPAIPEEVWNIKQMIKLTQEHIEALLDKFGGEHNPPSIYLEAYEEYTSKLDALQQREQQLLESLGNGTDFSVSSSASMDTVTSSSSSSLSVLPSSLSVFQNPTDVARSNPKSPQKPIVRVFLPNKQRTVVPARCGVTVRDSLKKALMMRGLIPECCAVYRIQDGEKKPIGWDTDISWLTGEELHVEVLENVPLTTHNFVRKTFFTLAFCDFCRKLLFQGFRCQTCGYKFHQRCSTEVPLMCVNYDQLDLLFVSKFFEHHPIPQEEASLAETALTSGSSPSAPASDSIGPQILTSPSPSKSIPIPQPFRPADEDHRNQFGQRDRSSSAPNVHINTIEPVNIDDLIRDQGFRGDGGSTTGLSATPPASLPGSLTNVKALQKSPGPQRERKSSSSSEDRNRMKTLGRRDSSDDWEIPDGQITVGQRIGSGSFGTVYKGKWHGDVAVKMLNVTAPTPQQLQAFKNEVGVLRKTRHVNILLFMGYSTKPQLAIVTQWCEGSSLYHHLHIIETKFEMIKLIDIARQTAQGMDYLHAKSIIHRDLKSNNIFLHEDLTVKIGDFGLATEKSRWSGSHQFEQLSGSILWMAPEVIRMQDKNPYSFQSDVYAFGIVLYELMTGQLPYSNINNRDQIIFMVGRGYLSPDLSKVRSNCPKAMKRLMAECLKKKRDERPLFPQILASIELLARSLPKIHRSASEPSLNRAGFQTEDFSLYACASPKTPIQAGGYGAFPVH

Structure (SMILES)	DC50 (A375.10 cells, 24 h) [nM]	Emax [1] [%]	Emax [%]
CC(C)S(=O)(=O)Nc1ccc(F)c(Oc2ccc3ncn([C@H]4COC5(CCN(C(=O)CN6CCC(c7ccc(NC8CCC(=O)NC8=O)cc7F)CC6)CC5)C4)c(=O)c3c2)c1C#N (stereo partly drawn) [Example 61, N-[2-cyano-3-[3-[(3R)-8-[2-[4-[4-[(2,6-dioxopiperidin-3-yl)amino]-2-fluorophenyl]piperidin-1-yl]acetyl]-1-oxa-8-azaspiro[4.5]decan-3-yl]-4-oxoquinazolin-6-yl]oxy-4-fluorophenyl]propane-2-sulfonamide]	21.1	8.44	–
CCN(C)S(=O)(=O)Nc1ccc(F)c(Oc2ccc3ncn([C@H]4CCC5(CCN(C(=O)CN6CCC(c7ccc(NC8CCC(=O)NC8=O)c(F)c7F)CC6)CC5)C4)c(=O)c3c2)c1C#N (stereo partly drawn) [Example 63, 6-[2-cyano-3-[[ethyl(methyl)sulfamoyl]amino]-6-fluorophenoxy]-3-[(3S)-8-[2-[4-[4-[(2,6-dioxopiperidin-3-yl)amino]-2,3-difluorophenyl]piperidin-1-yl]acetyl]-8-azaspiro[4.5]decan-3-yl]-4-oxoquinazoline]	20.4	–	9.52
CCN(C)S(=O)(=O)Nc1ccc(F)c(Oc2ccc3ncn([C@H]4COC5(CCN(C(=O)CN6CCC(c7ccc(C8CCC(=O)NC8=O)cc7F)C(F)(F)C6)CC5)C4)c(=O)c3c2)c1C#N (stereo partly drawn) [Example 65, (3R)-3-[6-[2-cyano-3-[[ethyl(methyl)sulfamoyl]amino]-6-fluorophenoxy]-4-oxoquinazolin-3-yl]-8-[2-[4-[4-(2,6-dioxopiperidin-3-yl)-2-fluorophenyl]-3,3-difluoropiperidin-1-yl]acetyl]-1-oxa-8-azaspiro[4.5]decane]	9.48	15.4	–
CCN(C)S(=O)(=O)Nc1ccc(F)c(Oc2ccc3ncn([C@H]4CCC5(CCN(C(=O)CN6CCC(c7ccc(C8CCC(=O)NC8=O)cc7F)C(F)(F)C6)CC5)C4)c(=O)c3c2)c1C#N (stereo partly drawn) [Example 66, 6-[2-cyano-3-[[ethyl(methyl)sulfamoyl]amino]-6-fluorophenoxy]-3-[(3S)-8-[2-[4-[4-(2,6-dioxopiperidin-3-yl)-2-fluorophenyl]-3,3-difluoropiperidin-1-yl]acetyl]-8-azaspiro [4.5]decan-3-yl]-4-oxoquinazoline]	11.3	10.2	–
CCN(C)S(=O)(=O)Nc1ccc(F)c(Oc2ccc3ncn([C@H]4CCC5(CCN(C(=O)CN6CCC(c7cc(F)c(NC8CCC(=O)NC8=O)cc7F)CC6)CC5)C4)c(=O)c3c2)c1C#N (stereo partly drawn) [Example 67, 6-[2-cyano-3-[[ethyl(methyl)sulfamoyl]amino]-6-fluorophenoxy]-3-[(3S)-8-[2-[4-[4-[(2,6-dioxopiperidin-3-yl)amino]-2,5-difluorophenyl]piperidin-1-yl]acetyl]-8-azaspiro[4.5]decan-3-yl]-4-oxoquinazoline]	5.31	–	8.05
CCN(C)S(=O)(=O)Nc1ccc(F)c(Oc2ccc3ncn(C4COC5(CCN(C(=O)CN6CCC(c7ccc(NC8CCC(=O)NC8=O)cc7F)CC6)CC5)C4)c(=O)c3c2Br)c1C#N (stereo not drawn) [Example 68, 3-[5-bromo-6-[2-cyano-3-[[ethyl(methyl)sulfamoyl]amino]-6-fluorophenoxy]-4-oxoquinazolin-3-yl]-8-[2-[4-[4-[(2,6-dioxopiperidin-3-yl)amino]-2-fluorophenyl]piperidin-1-yl]acetyl]-1-oxa-8-azaspiro[4.5]decane]	8.77	8.05	–
CCN(C)S(=O)(=O)Nc1ccc(F)c(Oc2ccc3ncn(C4CCC5(CCN(C(=O)CN6CCC(c7ccc(NC8CCC(=O)NC8=O)cc7F)CC6)CC5)C4)c(=O)c3c2Br)c1C#N (stereo not drawn) [Example 69, 5-bromo-6-[2-cyano-3-[[ethyl(methyl)sulfamoyl]amino]-6-fluorophenoxy]-3-[8-[2-[4-[4-[(2,6-dioxopiperidin-3-yl)amino]-2-fluorophenyl]piperidin-1-yl]acetyl]-8-azaspiro[4.5]decan-3-yl]-4-oxoquinazoline]	6.63	9.52	–
CCN(C)S(=O)(=O)Nc1ccc(F)c(Oc2ccc3ncn(C4CCC5(CCN(C(=O)CN6CCC(c7ccc(NC8CCC(=O)NC8=O)cc7F)CC6)CC5)C4)c(=O)c3c2Cl)c1C#N (stereo not drawn) [Example 70, 5-chloro-6-[2-cyano-3-[[ethyl(methyl)sulfamoyl]amino]-6-fluorophenoxy]-3-[8-[2-[4-[4-[(2,6-dioxopiperidin-3-yl)amino]-2-fluorophenyl]piperidin-1-yl]acetyl]-8-azaspiro[4.5]decan-3-yl]-4-oxoquinazoline]	27.7	10.7	–
CCN(C)S(=O)(=O)Nc1ccc(F)c(Oc2ccc3ncn(C4COC5(CCN(C(=O)CN6CCC(c7ccc(NC8CCC(=O)NC8=O)cc7F)CC6)CC5)C4)c(=O)c3c2Cl)c1C#N (stereo not drawn) [Example 71, 3-[5-chloro-6-[2-cyano-3-[[ethyl(methyl)sulfamoyl]amino]-6-fluorophenoxy]-4-oxoquinazolin-3-yl]-8-[2-[4-[4-[(2,6-dioxopiperidin-3-yl)amino]-2-fluorophenyl]piperidin-1-yl]acetyl]-1-oxa-8-azaspiro[4.5]decane]	37.6	10.5	–
CCN(C)S(=O)(=O)Nc1ccc(F)c(Oc2ccc3ncn([C@H]4COC5(CCN(C(=O)CN6CCC(c7ccc(NC8CCC(=O)NC8=O)cc7F)CC6)CC5)C4)c(=O)c3c2F)c1C#N (stereo partly drawn) [Example 72, (3R)-3-[6-[2-cyano-3-[[ethyl(methyl)sulfamoyl]amino]-6-fluorophenoxy]-5-fluoro-4-oxoquinazolin-3-yl]-8-[2-[4-[4-[(2,6-dioxopiperidin-3-yl)amino]-2-fluorophenyl]piperidin-1-yl]acetyl]-1-oxa-8-azaspiro[4.5]decane]	39.9	8.63	–
CCN(C)S(=O)(=O)Nc1ccc(F)c(Oc2ccc3ncn([C@@H]4COC5(CCN(C(=O)CN6CCC(c7ccc(NC8CCC(=O)NC8=O)cc7F)CC6)CC5)C4)c(=O)c3c2Br)c1C#N (stereo partly drawn) [Example 74, (3S)-3-[5-bromo-6-[2-cyano-3-[[ethyl(methyl)sulfamoyl]amino]-6-fluorophenoxy]-4-oxoquinazolin-3-yl]-8-[2-[4-[4-[(2,6-dioxopiperidin-3-yl)amino]-2-fluorophenyl]piperidin-1-yl]acetyl]-1-oxa-8-azaspiro[4.5]decane]	31.5	11.6	–
CCN(C)S(=O)(=O)Nc1ccc(F)c(Oc2ccc3ncn([C@H]4COC5(CCN(C(=O)CN6CCC(c7cc(OC)c(NC8CCC(=O)NC8=O)cc7F)CC6)CC5)C4)c(=O)c3c2)c1C#N (stereo partly drawn) [Example 75, (3R)-3-[6-[2-cyano-3-[[ethyl(methyl)sulfamoyl]amino]-6-fluorophenoxy]-4-oxoquinazolin-3-yl]-8-[2-[4-[4-[(2,6-dioxopiperidin-3-yl)amino]-2-fluoro-5-methoxyphenyl]piperidin-1-yl]acetyl]-1-oxa-8-azaspiro[4.5]decane]	43.2	8.31	–
CCN(C)S(=O)(=O)Nc1ccc(F)c(Oc2ccc3ncn([C@H]4COC5(CCN(C(=O)CN6CCCC(c7ccc(NC8CCC(=O)NC8=O)cc7F)CC6)CC5)C4)c(=O)c3c2)c1C#N (stereo partly drawn) [Example 76, (3R)-3-[6-[2-cyano-3-[[ethyl(methyl)sulfamoyl]amino]-6-fluorophenoxy]-4-oxoquinazolin-3-yl]-8-[2-[4-[4-[(2,6-dioxopiperidin-3-yl)amino]-2-fluorophenyl]azepan-1-yl]acetyl]-1-oxa-8-azaspiro[4.5]decane]	50.1	13.2	–
CCN(C)S(=O)(=O)Nc1ccc(F)c(Oc2ccc3ncn(C4COC5(CCN(C(=O)CN6CCC(c7ccc(NC8CCC(=O)NC8=O)cc7F)CC6)CC5)C4)c(=O)c3c2N)c1C#N (stereo not drawn) [Example 81, 3-[5-amino-6-[2-cyano-3-[[ethyl(methyl)sulfamoyl]amino]-6-fluorophenoxy]-4-oxoquinazolin-3-yl]-8-[2-[4-[4-[(2,6-dioxopiperidin-3-yl)amino]-2-fluorophenyl]piperidin-1-yl]acetyl]-1-oxa-8-azaspiro[4.5]decane]	25.4	12.2	–
CCN(C)S(=O)(=O)Nc1ccc(F)c(Oc2ccc3ncn(-c4cnc(N5CCN(C(=O)CN6CCC(c7ccc(NC8CCC(=O)NC8=O)cc7F)CC6)CC5)nc4)c(=O)c3c2)c1C#N (stereo not drawn) [Example 84, 6-[2-cyano-3-[[ethyl(methyl)sulfamoyl]amino]-6-fluorophenoxy]-3-[2-[4-[2-[4-[4-[(2,6-dioxopiperidin-3-yl)amino]-2-fluorophenyl]piperidin-1-yl]acetyl]piperazin-1-yl]pyrimidin-5-yl]-4-oxoquinazoline]	9.97	9.26	–
CCN(C)S(=O)(=O)Nc1ccc(F)c(Oc2ccc3ncn(-c4ccc(N5CCN(C(=O)CN6CCC(c7ccc(NC8CCC(=O)NC8=O)cc7F)CC6)CC5)nc4)c(=O)c3c2)c1C#N (stereo not drawn) [Example 85, 6-[2-cyano-3-[[ethyl(methyl)sulfamoyl]amino]-6-fluorophenoxy]-3-[6-[4-[2-[4-[4-[(2,6-dioxopiperidin-3-yl)amino]-2-fluorophenyl]piperidin-1-yl]acetyl]piperazin-1-yl]pyridin-3-yl]-4-oxoquinazoline]	15.8	11	–
CCN(C)S(=O)(=O)Nc1ccc(F)c(Oc2ccc3ncn(-c4cnc(N5CCN(C(=O)CN6CCC(c7ccc(NC8CCC(=O)NC8=O)cc7F)CC6)CC5)nc4)c(=O)c3c2F)c1C#N (stereo not drawn) [Example 86, 6-[2-cyano-3-[[ethyl(methyl)sulfamoyl]amino]-6-fluorophenoxy]-3-[2-[4-[2-[4-[4-[(2,6-dioxopiperidin-3-yl)amino]-2-fluorophenyl]piperidin-1-yl]acetyl]piperazin-1-yl]pyrimidin-5-yl]-5-fluoro-4-oxoquinazoline]	8.28	12.9	–
CCN(C)S(=O)(=O)Nc1ccc(F)c(Oc2ccc3ncn(-c4ccc(N5CCN(C(=O)CN6CCC(c7c(F)cc(NC8CCC(=O)NC8=O)cc7OC)CC6)CC5)nc4)c(=O)c3c2)c1C#N (stereo not drawn) [Example 87, 6-[2-cyano-3-[[ethyl(methyl)sulfamoyl]amino]-6-fluorophenoxy]-3-[6-[4-[2-[4-[4-[(2,6-dioxopiperidin-3-yl)amino]-2-fluoro-6-methoxyphenyl]piperidin-1-yl]acetyl]piperazin-1-yl]pyridin-3-yl]-4-oxoquinazoline]	30.3	10.1	–

Reference: patent US12486253B2, “Therapeutics for the degradation of mutant BRAF” (C4 THERAPEUTICS, INC., priority 2021, dated 2025)
